Test results reported in ChEMBL document CHEMBL1201862, “PubChem BioAssay data set” (2004).
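A five-concentration, 48-hour dose response in 96-well plates underlies each endpoint, interpolated linearly between surrounding concentrations. The concentration for 50% growth inhibition is given as GI50.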 Active and inactive are the calls of the source. Rule as the data show it: active = GI50 up to about 1.1 µM and inactive = higher.

Columns and labels:
Assay in all cases: inhibition of tumour cell growth, NCI panel, 48 h
[1] = test system: RPMI-8226
[2] = test system: HL-60
[3] = test system: SNB-19
[4] = test system: M14
[5] = test system: OVCAR-5
[6] = test system: NCI-H23
[7] = test system: SW-620
[8] = test system: K562
[9] = test system: HCT-15
[10] = test system: HCC 2998
[11] = test system: OVCAR-4
[12] = test system: HOP-92
[13] = test system: ACHN
[14] = test system: UO-31
[15] = test system: CAKI-1
[16] = test system: Hs-578T
[17] = test system: HCT-116
[18] = test system: OVCAR-8
[19] = test system: SK-MEL-2
[20] = test system: MDA-MB-435

Row | SMILES | GI50 [1] | GI50 [2] | GI50 [3] | GI50 [4] | GI50 [5] | GI50 [6] | GI50 [7] | GI50 [8] | GI50 [9] | GI50 [10] | GI50 [11] | GI50 [12] | GI50 [13] | GI50 [14] | GI50 [15] | GI50 [16] | GI50 [17] | GI50 [18] | GI50 [19] | GI50 [20]
1 | Fc1ccc(F)c(/C=N/C23CC4CC(CC(C4)C2)C3)c1 | > 10 µM (inactive) | 2.62 µM (inactive) | > 10 µM (inactive) | > 10 µM (inactive) | > 10 µM (inactive) | > 10 µM (inactive) | > 10 µM (inactive) | 4.44 µM (inactive) | > 10 µM | > 10 µM (inactive) | > 10 µM (inactive) | > 10 µM (inactive) | > 10 µM (inactive) | > 10 µM (inactive) | > 10 µM (inactive) | > 10 µM (inactive) | > 10 µM (inactive) | > 10 µM (inactive) | > 10 µM (inactive) | 
2 | CCc1nn(S(=O)(=O)c2ccc(C)cc2)c2c1CS(=O)(=O)CC2 | > 100 µM (inactive) |  | > 100 µM (inactive) | > 100 µM (inactive) | > 100 µM (inactive) | > 100 µM (inactive) | > 100 µM (inactive) | > 100 µM (inactive) | > 100 µM |  | > 100 µM (inactive) |  | > 100 µM (inactive) | > 100 µM (inactive) | > 100 µM (inactive) | 28 µM (inactive) | > 100 µM (inactive) | 34.9 µM (inactive) | > 100 µM (inactive) | > 100 µM (inactive)
3 | CC(=O)O[C@H]1CC[C@H]2[C@@H]3CCc4cc(O)c(I)cc4[C@H]3CC[C@]12C | 12.4 µM (inactive) | 5.21 µM (inactive) | 15.8 µM (inactive) | 13.6 µM (inactive) | 18.2 µM (inactive) | 12.5 µM (inactive) | 13 µM (inactive) | 10.6 µM (inactive) | 10.5 µM | 15 µM (inactive) | 13.6 µM (inactive) |  | 14.9 µM (inactive) | 14 µM (inactive) | 16.1 µM (inactive) | 14.9 µM (inactive) |  | 18.3 µM (inactive) | 19 µM (inactive) | 
4 | C=C1CC2CC[C@@]34C[C@@H]5O[C@@H]6C(O[C@H]7CC[C@H](CC(=O)OC8[C@@H](C)C9OC%10C[C@]%11(C[C@@H]%12O[C@@]%13(C[C@@H](C)[C@@H]%12O%11)C[C@H](C)[C@@H]%11OC%12CC(C(O)CO)OC%12C[C@@H]%11O%13)OC%10CC9O[C@H]8C[C@H]8O[C@@H](CC[C@@H]1O2)C[C@@H](C)C8=C)O[C@@H]7[C@@H]6O3)C5O4 (some centres undefined) | 0.00185 µM (active) | 0.000321 µM (active) | 0.00211 µM (active) | 0.00108 µM (active) | 0.00904 µM (active) | 0.00104 µM (active) | 0.000485 µM (active) | 0.000755 µM (active) | 0.000476 µM | 0.00225 µM (active) | 0.00471 µM (active) | 0.00236 µM (active) | 0.0038 µM (active) | 0.00673 µM (active) | 0.000484 µM (active) |  | 0.000582 µM (active) | 0.00249 µM (active) | 0.00125 µM (active) | 
5 | N#C/C(=C/c1ccsc1)C(=O)c1ccccc1 | > 100 µM (inactive) | > 100 µM (inactive) | > 100 µM (inactive) | > 100 µM (inactive) | > 100 µM (inactive) | > 100 µM (inactive) | > 100 µM (inactive) | > 100 µM (inactive) | > 100 µM | > 100 µM (inactive) | > 100 µM (inactive) | > 100 µM (inactive) | > 100 µM (inactive) | > 100 µM (inactive) | > 100 µM (inactive) |  | > 100 µM (inactive) | > 100 µM (inactive) | > 100 µM (inactive) | 
6 | O=C1c2ccccc2C(=O)c2c(O)ccc(O)c21 [QUINIZARIN] | 91 µM (inactive) | > 100 µM (inactive) | > 100 µM (inactive) | > 100 µM (inactive) | > 100 µM (inactive) | > 100 µM (inactive) | 93.8 µM (inactive) | > 100 µM (inactive) | > 100 µM | 81.1 µM (inactive) | > 100 µM (inactive) | > 100 µM (inactive) | > 100 µM (inactive) | 59 µM (inactive) | > 100 µM (inactive) |  | > 100 µM (inactive) | > 100 µM (inactive) | 79.8 µM (inactive) | 
7 | CN(C)c1cccc(-c2cc(O)c3cc4c(cc3n2)OCO4)c1 | 0.473 µM (active) | 0.112 µM (active) | 0.365 µM (active) | 0.139 µM (active) | 0.274 µM (active) | 0.326 µM (active) | 0.124 µM (active) | 0.146 µM (active) | 0.285 µM | 0.193 µM (active) | 0.705 µM (active) | 2.15 µM (inactive) | 0.378 µM (active) | 0.667 µM (active) | > 100 µM (inactive) |  | 0.138 µM (active) | 0.363 µM (active) | 0.221 µM (active) | 
8 | O=C(N/C(=C/c1cccc([N+](=O)[O-])c1)c1nc2cc(Cl)ccc2[nH]1)c1ccccc1 | 2.71 µM (inactive) | 1.99 µM (inactive) | 36.3 µM (inactive) | 20.7 µM (inactive) | 27.8 µM (inactive) | 11.4 µM (inactive) | 5.55 µM (inactive) | 6.21 µM (inactive) | 6.01 µM | 23.1 µM (inactive) | 17.4 µM (inactive) | 19.1 µM (inactive) | 11.3 µM (inactive) | 2.18 µM (inactive) | 11.1 µM (inactive) |  | 8.95 µM (inactive) | 7.5 µM (inactive) | 16.1 µM (inactive) | 
9 | O=C1OC(=O)C2C1C1C(c3ccccc3)=C(c3ccccc3)C2(O)C2C(=O)OC(=O)C12 (centres undefined) | 38.6 µM (inactive) | > 10 µM (inactive) | > 100 µM (inactive) | > 100 µM (inactive) | > 100 µM (inactive) | 65.3 µM (inactive) | 80.7 µM (inactive) | 45.1 µM (inactive) | > 100 µM | > 100 µM (inactive) | > 100 µM (inactive) | 65.6 µM (inactive) | > 100 µM (inactive) | > 100 µM (inactive) | > 100 µM (inactive) |  | 54.8 µM (inactive) | 63.8 µM (inactive) | > 100 µM (inactive) | 
10 | CC1=C(C)CC(C#N)(C#N)C(C#N)(C#N)C1 | 2.18 µM (inactive) | 1.47 µM (inactive) | > 10 µM (inactive) | 2.86 µM (inactive) | > 10 µM (inactive) | > 4.37 µM (inactive) | 2.31 µM (inactive) | 2.2 µM (inactive) | > 10 µM | > 10 µM (inactive) | > 8.04 µM (inactive) | > 3.28 µM (inactive) | > 8.79 µM (inactive) | > 10 µM (inactive) | > 10 µM (inactive) | > 10 µM (inactive) | > 4.91 µM (inactive) | > 5.45 µM (inactive) | > 10 µM (inactive) | 
11 | CC(C)Oc1ccc(CNC2=NCCO2)c2ccccc12 | 9.77 µM (inactive) | 8.63 µM (inactive) | 7.74 µM (inactive) | 11.4 µM (inactive) | 11.6 µM (inactive) | 14.6 µM (inactive) | 15.3 µM (inactive) | 4.57 µM (inactive) | 15.6 µM | 10.9 µM (inactive) | 13.9 µM (inactive) |  | 14 µM (inactive) | 5.24 µM (inactive) |  | 10.3 µM (inactive) | 12.6 µM (inactive) | 15.2 µM (inactive) |  | 10.9 µM (inactive)
12 | COC1=C(OC)C(=O)C(C/C=C/c2c(Cl)nc3sccn23)=C(C)C1=O | 4.35 µM (inactive) |  | 14.1 µM (inactive) | 16.2 µM (inactive) | 16.9 µM (inactive) | 0.518 µM (active) | 21.3 µM (inactive) | 19.8 µM (inactive) | 26.5 µM | 18.2 µM (inactive) | 0.398 µM (active) |  | 15.5 µM (inactive) | 18.7 µM (inactive) | 12.2 µM (inactive) | 20.5 µM (inactive) | 12.8 µM (inactive) | 10.4 µM (inactive) | 16.4 µM (inactive) | 9.16 µM (inactive)
13 | CCOc1ccc(Nc2nc(C)c(C(=O)/C=C/c3ccc(Cl)cc3Cl)s2)cc1 | 46.9 µM (inactive) | 27.2 µM (inactive) | 31.4 µM (inactive) | 23.9 µM (inactive) | 40.8 µM (inactive) | 22.6 µM (inactive) | 20.6 µM (inactive) | 33.2 µM (inactive) | 22.2 µM | 23.9 µM (inactive) | 10.8 µM (inactive) | 30 µM (inactive) | 27.4 µM (inactive) | 25.2 µM (inactive) | 27.1 µM (inactive) |  | 21.1 µM (inactive) | 21.4 µM (inactive) | 24 µM (inactive) | 
14 | Cc1cc2c(cc1C)[n+]([O-])c(C(=O)CC(=O)C(=O)Nc1ccccc1C)c(C)[n+]2[O-] | > 100 µM (inactive) | 62.8 µM (inactive) | > 100 µM (inactive) | > 100 µM (inactive) | > 100 µM (inactive) | > 100 µM (inactive) | > 100 µM (inactive) | > 100 µM (inactive) | > 100 µM | > 100 µM (inactive) | > 100 µM (inactive) | > 100 µM (inactive) | > 100 µM (inactive) | 96.6 µM (inactive) | > 100 µM (inactive) |  | > 100 µM (inactive) | > 100 µM (inactive) | > 100 µM (inactive) | 
15 | Cc1ccc(NC(=O)CC/C(CC(=O)C(C)(C)C)=N/NC(=O)C(N)=O)cc1C | > 100 µM (inactive) | > 100 µM (inactive) | > 100 µM (inactive) | > 100 µM (inactive) | > 100 µM (inactive) | > 100 µM (inactive) | > 100 µM (inactive) | > 100 µM (inactive) | > 100 µM | > 100 µM (inactive) | > 100 µM (inactive) | > 100 µM (inactive) | > 100 µM (inactive) | > 100 µM (inactive) | > 100 µM (inactive) |  | > 100 µM (inactive) | > 100 µM (inactive) | > 100 µM (inactive) | 
